Experimental data taken from PubChem BioAssay AID1963826 (Molecular Pharmacology Branch, DTP, NCI, 2024).

Test system: 926638-142-R-J1-PDC complex spheroid viability
Assay: Anticancer human tumor 926638-142-R-J1-PDC patient-derived endometrial carcinoma cell line growth inhibition [POLQ]
Settings: for IC50: curve of first compound; for viability, T/C: stronger effect = lower value
Procedure, shortened: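 Three-cell-type spheroids modelling solid tumor plus stroma served as the readout system; POL inhibitors were tested individually and in combination, concentration ranges set by clinical Cmax where known.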

[1] = second compound 0.0316 µM, first compound 0.0316 µM
[2] = second compound 0.0316 µM, first compound 0.1 µM
[3] = second compound 0.0316 µM, first compound 0.316 µM
[4] = second compound 0.0316 µM, first compound 1 µM
[5] = second compound 0.0316 µM, first compound 3.16 µM
[6] = second compound 0.0316 µM, first compound 10 µM
[7] = second compound 0.1 µM, first compound 0.0316 µM
[8] = second compound 0.1 µM, first compound 0.1 µM
[9] = second compound 0.1 µM, first compound 0.316 µM
[10] = second compound 0.1 µM, first compound 1 µM
[11] = second compound 0.1 µM, first compound 3.16 µM
[12] = second compound 0.1 µM, first compound 10 µM
[13] = second compound 0.316 µM, first compound 0.0316 µM
[14] = second compound 0.316 µM, first compound 0.1 µM
[15] = second compound 0.316 µM, first compound 0.316 µM
[16] = second compound 0.316 µM, first compound 1 µM
[17] = second compound 0.316 µM, first compound 3.16 µM
[18] = second compound 0.316 µM, first compound 10 µM
[19] = second compound 1 µM, first compound 0.0316 µM
[20] = second compound 1 µM, first compound 0.1 µM
[21] = second compound 1 µM, first compound 0.316 µM
[22] = second compound 1 µM, first compound 1 µM
[23] = second compound 1 µM, first compound 3.16 µM
[24] = second compound 1 µM, first compound 10 µM
[25] = second compound 3.16 µM, first compound 0.0316 µM
[26] = second compound 3.16 µM, first compound 0.1 µM
[27] = second compound 3.16 µM, first compound 0.316 µM
[28] = second compound 3.16 µM, first compound 1 µM
[29] = second compound 3.16 µM, first compound 3.16 µM
[30] = second compound 3.16 µM, first compound 10 µM
[31] = second compound 10 µM, first compound 0.0316 µM
[32] = second compound 10 µM, first compound 0.1 µM
[33] = second compound 10 µM, first compound 0.316 µM
[34] = second compound 10 µM, first compound 1 µM
[35] = second compound 10 µM, first compound 3.16 µM
[36] = second compound 10 µM, first compound 10 µM
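Further: spheroids exposed to drugs for one week before readout.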
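Wherever viability, T/C is given: percent viability relative to DMSO vehicle control wells set as 100%.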

SMILES: CC(C)n1c(=O)n(C)c2cnc3cc(F)c(-c4ccc(OCCCN5CCCCC5)nc4)cc3c21 + Cc1cccc(N(C)C(=O)C2C(O)CCN2c2nc(C)cc(C(F)(F)F)c2C#N)c1
- IC50 (second compound 0.0316 µM): > 10000 nM
- IC50 (second compound 0.1 µM): > 10000 nM
- IC50 (second compound 0.316 µM): > 10000 nM
- IC50 (second compound 1 µM): > 10000 nM
- IC50 (second compound 3.16 µM): > 10000 nM
- IC50 (second compound 10 µM): 9830 nM
- viability, T/C [1]: 86.5%
- viability, T/C [2]: 88.5%
- viability, T/C [3]: 87.6%
- viability, T/C [4]: 88.9%
- viability, T/C [5]: 94.1%
- viability, T/C [6]: 62.1%
- viability, T/C [7]: 94.6%
- viability, T/C [8]: 81.8%
- viability, T/C [9]: 103%
- viability, T/C [10]: 86.7%
- viability, T/C [11]: 79.5%
- viability, T/C [12]: 50.9%
- viability, T/C [13]: 104%
- viability, T/C [14]: 123%
- viability, T/C [15]: 89.7%
- viability, T/C [16]: 102%
- viability, T/C [17]: 93.7%
- viability, T/C [18]: 52.3%
- viability, T/C [19]: 92.8%
- viability, T/C [20]: 88.9%
- viability, T/C [21]: 78.5%
- viability, T/C [22]: 102%
- viability, T/C [23]: 107%
- viability, T/C [24]: 72.3%
- viability, T/C [25]: 89.5%
- viability, T/C [26]: 95.8%
- viability, T/C [27]: 92%
- viability, T/C [28]: 104%
- viability, T/C [29]: 74%
- viability, T/C [30]: 65.2%
- viability, T/C [31]: 103%
- viability, T/C [32]: 89.2%
- viability, T/C [33]: 107%
- viability, T/C [34]: 87%
- viability, T/C [35]: 76.1%
- viability, T/C [36]: 49.1%

SMILES: CC1COCCN1c1cc(-c2ccnn2C)c2ccnc(-c3ccn[nH]3)c2n1 (stereo not drawn) + Cc1cccc(N(C)C(=O)C2C(O)CCN2c2nc(C)cc(C(F)(F)F)c2C#N)c1
- IC50 (second compound 0.0316 µM): 388 nM
- IC50 (second compound 0.1 µM): 340 nM
- IC50 (second compound 0.316 µM): 298 nM
- IC50 (second compound 1 µM): 414 nM
- IC50 (second compound 3.16 µM): 433 nM
- IC50 (second compound 10 µM): 313 nM
- viability, T/C [1]: 94.8%
- viability, T/C [2]: 75.6%
- viability, T/C [3]: 58%
- viability, T/C [4]: 27.5%
- viability, T/C [5]: 12.6%
- viability, T/C [6]: 8.02%
- viability, T/C [7]: 106%
- viability, T/C [8]: 81.6%
- viability, T/C [9]: 51.1%
- viability, T/C [10]: 28%
- viability, T/C [11]: 12.6%
- viability, T/C [12]: 7.36%
- viability, T/C [13]: 106%
- viability, T/C [14]: 76.7%
- viability, T/C [15]: 52.3%
- viability, T/C [16]: 23.1%
- viability, T/C [17]: 12.2%
- viability, T/C [18]: 10.2%
- viability, T/C [19]: 83.7%
- viability, T/C [20]: 99.3%
- viability, T/C [21]: 56.1%
- viability, T/C [22]: 24.1%
- viability, T/C [23]: 12.2%
- viability, T/C [24]: 8.86%
- viability, T/C [25]: 73.2%
- viability, T/C [26]: 77.7%
- viability, T/C [27]: 53.8%
- viability, T/C [28]: 32.8%
- viability, T/C [29]: 10.1%
- viability, T/C [30]: 6.72%
- viability, T/C [31]: 90.7%
- viability, T/C [32]: 76.5%
- viability, T/C [33]: 50.2%
- viability, T/C [34]: 23.3%
- viability, T/C [35]: 10.8%
- viability, T/C [36]: 7.42%

SMILES: CC1COCCN1c1cc(C2(S(C)(=N)=O)CC2)nc(-c2ccnc3[nH]ccc23)n1 (stereo not drawn) + Cc1cccc(N(C)C(=O)C2C(O)CCN2c2nc(C)cc(C(F)(F)F)c2C#N)c1
- IC50 (second compound 0.0316 µM): 4550 nM
- IC50 (second compound 0.1 µM): 5510 nM
- IC50 (second compound 0.316 µM): 4700 nM
- IC50 (second compound 1 µM): 4960 nM
- IC50 (second compound 3.16 µM): 4390 nM
- IC50 (second compound 10 µM): 4050 nM
- viability, T/C [1]: 117%
- viability, T/C [2]: 93.9%
- viability, T/C [3]: 93.8%
- viability, T/C [4]: 101%
- viability, T/C [5]: 59.2%
- viability, T/C [6]: 30.1%
- viability, T/C [7]: 104%
- viability, T/C [8]: 91.2%
- viability, T/C [9]: 100%
- viability, T/C [10]: 81.2%
- viability, T/C [11]: 76.2%
- viability, T/C [12]: 25.8%
- viability, T/C [13]: 107%
- viability, T/C [14]: 90.9%
- viability, T/C [15]: 98.6%
- viability, T/C [16]: 79.5%
- viability, T/C [17]: 60.7%
- viability, T/C [18]: 29.7%
- viability, T/C [19]: 117%
- viability, T/C [20]: 101%
- viability, T/C [21]: 96.4%
- viability, T/C [22]: 110%
- viability, T/C [23]: 60.5%
- viability, T/C [24]: 33.6%
- viability, T/C [25]: 91.6%
- viability, T/C [26]: 117%
- viability, T/C [27]: 95.2%
- viability, T/C [28]: 103%
- viability, T/C [29]: 59%
- viability, T/C [30]: 27.4%
- viability, T/C [31]: 80.4%
- viability, T/C [32]: 112%
- viability, T/C [33]: 87.8%
- viability, T/C [34]: 89%
- viability, T/C [35]: 56.7%
- viability, T/C [36]: 25.5%

SMILES: COc1ccc([C@@H](O)c2cc(-c3ncnc4cc(N5CCOCC5)ccc34)c(F)cc2Cl)nn1 + Cc1cccc(N(C)C(=O)C2C(O)CCN2c2nc(C)cc(C(F)(F)F)c2C#N)c1
- IC50 (second compound 0.0316 µM): 459 nM
- IC50 (second compound 0.1 µM): 546 nM
- IC50 (second compound 0.316 µM): 399 nM
- IC50 (second compound 1 µM): 493 nM
- IC50 (second compound 3.16 µM): 484 nM
- IC50 (second compound 10 µM): 415 nM
- viability, T/C [1]: 76.7%
- viability, T/C [2]: 93.2%
- viability, T/C [3]: 58.1%
- viability, T/C [4]: 26.9%
- viability, T/C [5]: 12.9%
- viability, T/C [6]: 7.35%
- viability, T/C [7]: 99%
- viability, T/C [8]: 80.7%
- viability, T/C [9]: 74.2%
- viability, T/C [10]: 24.3%
- viability, T/C [11]: 11.5%
- viability, T/C [12]: 9.24%
- viability, T/C [13]: 77.3%
- viability, T/C [14]: 71.1%
- viability, T/C [15]: 57.2%
- viability, T/C [16]: 24.6%
- viability, T/C [17]: 13.3%
- viability, T/C [18]: 7.22%
- viability, T/C [19]: 107%
- viability, T/C [20]: 89.7%
- viability, T/C [21]: 65.9%
- viability, T/C [22]: 26.8%
- viability, T/C [23]: 14.7%
- viability, T/C [24]: 9.12%
- viability, T/C [25]: 83.5%
- viability, T/C [26]: 88.1%
- viability, T/C [27]: 57.8%
- viability, T/C [28]: 32.7%
- viability, T/C [29]: 12.2%
- viability, T/C [30]: 9.15%
- viability, T/C [31]: 76.5%
- viability, T/C [32]: 94%
- viability, T/C [33]: 56%
- viability, T/C [34]: 24%
- viability, T/C [35]: 12.9%
- viability, T/C [36]: 9.62%
